The values below come from US20060160893A1, “Method for enhancing the quality of berry fruit” (priority 2001, published 2006).

The test system of experiment [1] is Botrytis gray mold of red raspberry. Put plainly: Example 6: field application, Botrytis gray mold of red raspberry, storage evaluation. The experiment is classed as in vivo. As for the experimental part: (§1) All examples are conducted under field conditions using accepted grower practices. The mixtures of I and II are applied to field grown plants, not as a post harvest berry treatment.
(§2) The use of corrected means is standard practice in field evaluations of pesticides. Corrected means are calculated as follows: [formula]
(§3) In the following examples, Fungicide A=a mixture of cyprodinil (I) and fludioxonil (II) (mixing ratio 1.5:1) applied as a 62.5% by weight water dispersible granule (WG) formulation.
Fungicide A is applied to field grown red raspberry and shelf-life evaluations made.
Healthy berries are harvested from each treatment and placed into storage and evaluated for Botrytis control (see table below).

In experiment [2] the test system is Botrytis gray mold of strawberry. The experiment can be described thus: Example 1: field application, Botrytis gray mold of strawberry, cool storage shelf-life evaluation. The class given is in vivo. As to conditions: for % Control: 7 day storage, relative to untreated check. As for the experimental part: as §1, §2, §3
Performance of Fungicide a Against Botrytis Gray Mold of Strawberry. Fungicide A is applied in the field; berries are then harvested and placed into cool storage for shelf-life evaluations (no additional sprays were made after harvest).

Take `O=C1C2CC=CCC2C(=O)N1SC(Cl)(Cl)Cl` (stereo not drawn) [Captan, captan]: in experiment [1], the “% Botrytis Infect Berries (6 Day Storage Rating)” value came out at 88.2%. In addition, in experiment [1] (relative to untreated check), the “% Botrytis Disease Control (6 Day Storage Rating)” value was 7%. Moreover, the figures for the “% Control” value in experiment [2] (inoculated) and in experiment [2] (non-inoculated) were 28% and 70%, respectively. Also, the “% Pest Incidence Fruit Rating 7 Day Storage Rating Inoculated” value in experiment [2] (strawberry variety 'Chandler', inoculated) was 51%. Moreover, the “% Pest Incidence Fruit Rating 7 Day Storage Rating Non-inoculated” value in experiment [2] (strawberry variety 'Chandler', non-inoculated) was determined as 6%.
